Our source for the IC50 values is patent US9062050B2, “Inhibitor of JAK1 and JAK2” (Eli Lilly and Company, priority 2012, dated 2015).

Experiment [1] addresses JAK2 (Homo sapiens, UniProt O60674). In words: JAK2 EPO-TF1/pSTAT5 cell-based assay (Cellomics ArrayScan HCS). Also on record: endogenous in cells; host or cells: TF-1 (human erythroid leukemia) cells. To be noted: TF-1 cells, EPO at 1.6 U/mL, relative IC50, n=65; read-out: IC50, inhibits JAK2 (pSTAT5). An excerpt: The JAK2 EPO-TF1/pSTAT5 cell-based assay mimics the constitutive activation of JAK2-STAT5 in erythroid progenitor cells, which drives the overproduction of red blood cells, a marker of polycythemia vera (PV). Therefore, the EPO-TF1/pSTAT5 cell-based assay enables the evaluation of the JAK2 cellular activity of JAK compounds in vitro.
TF-1 (human erythroid leukemia) cells are maintained in RPMI 1640 (RPMI-1640 was developed by Moore et. al. at Roswell Park Memorial Institute. The formulation is based on the RPMI-1630 series of media utilizing a bicarbonate buffering system and alterations in the amounts of amino acids and vitamins.) with 10% fetal bovine serum (FBS), 0.075% sodium bicarbonate, 1 mM sodium pyruvate, 1× antibiotic/antimycotic (Invitrogen, Carlsbad, Calif.) and 0.45% glucose. The medium is supplemented with GM-CSF (granulocyte-macrophage colony-stimulating factor) at a final concentration of 2 ng/mL. Cells are kept at 37° C. with 5% CO2. […] TF-1 cells are counted and cells are collected to seed 2×10^7 cells per 96-well plate at a density of 2×10^5 cells per well. […]
To perform the assay, serum-starved cells are collected and washed once with unsupplemented RPMI 1640 medium. […] An aliquot of 200 μL of 1 to 10 dilution of Mouse anti-pSTAT5 (pY694) Alexa Fluor 647® in fluorescence activated cell sorting (FACS) buffer is added to the cells. […]

Experiment [2] concerns phosphorylation of STAT3. In words: SUM-159-MSD-pSTAT3 cell-based assay. Particulars: SUM159; Sum-159 breast cancer cells, human IL-6 stimulated; read-out: IC50, inhibits the phosphorylation of STAT3. The method, then:
The SUM-159-MSD-pSTAT3 cell-based assay is used to examine the potency of compounds at blocking STAT3 phosphorylation in breast cancer cells. Sum-159 cells (Asterand) are grown and maintained in HAM's F-12 medium (Gibco 11765-054) with 5% FBS, insulin (5 microgram/mL) and hydrocortisone (1 μg/ml). Cells are collected, counted, plated at 4×10^4 cells/well in 96-well plates, and cultured for overnight at 37° C. with 5% CO2. Culture medium is then removed and replaced with F-12-medium containing either vehicle (DMSO) alone or 2× final concentrations of compounds across a range from 0-20 μM at 1:3 dilutions (10 concentration points). After incubation for five additional hours, medium is removed and cells are treated with 100 microliters of 2× human IL-6 (20 ng/mL diluted in F-12 complete medium) and incubated for an additional 20 minutes at 37° C. in 5% CO2. […] The 96-well plates are sealed and then mixed for 2 minutes on an orbital shaker at room temperature, and then immediately frozen at −80° C. overnight. pSTAT3 is detected with the use of the MA6000 MSD Whole Cell Lysate Kit for Phospho-STAT-3 (Tyr 705) (Meso Scale Diagnostics, #K150DID-2) as described above. Plates are read by using a MSD plate reader. Data are analyzed using Graph Pad program.

By IC50 is commonly meant the concentration that gives 50% inhibition.

Sequence of JAK2 (O60674 whole entry): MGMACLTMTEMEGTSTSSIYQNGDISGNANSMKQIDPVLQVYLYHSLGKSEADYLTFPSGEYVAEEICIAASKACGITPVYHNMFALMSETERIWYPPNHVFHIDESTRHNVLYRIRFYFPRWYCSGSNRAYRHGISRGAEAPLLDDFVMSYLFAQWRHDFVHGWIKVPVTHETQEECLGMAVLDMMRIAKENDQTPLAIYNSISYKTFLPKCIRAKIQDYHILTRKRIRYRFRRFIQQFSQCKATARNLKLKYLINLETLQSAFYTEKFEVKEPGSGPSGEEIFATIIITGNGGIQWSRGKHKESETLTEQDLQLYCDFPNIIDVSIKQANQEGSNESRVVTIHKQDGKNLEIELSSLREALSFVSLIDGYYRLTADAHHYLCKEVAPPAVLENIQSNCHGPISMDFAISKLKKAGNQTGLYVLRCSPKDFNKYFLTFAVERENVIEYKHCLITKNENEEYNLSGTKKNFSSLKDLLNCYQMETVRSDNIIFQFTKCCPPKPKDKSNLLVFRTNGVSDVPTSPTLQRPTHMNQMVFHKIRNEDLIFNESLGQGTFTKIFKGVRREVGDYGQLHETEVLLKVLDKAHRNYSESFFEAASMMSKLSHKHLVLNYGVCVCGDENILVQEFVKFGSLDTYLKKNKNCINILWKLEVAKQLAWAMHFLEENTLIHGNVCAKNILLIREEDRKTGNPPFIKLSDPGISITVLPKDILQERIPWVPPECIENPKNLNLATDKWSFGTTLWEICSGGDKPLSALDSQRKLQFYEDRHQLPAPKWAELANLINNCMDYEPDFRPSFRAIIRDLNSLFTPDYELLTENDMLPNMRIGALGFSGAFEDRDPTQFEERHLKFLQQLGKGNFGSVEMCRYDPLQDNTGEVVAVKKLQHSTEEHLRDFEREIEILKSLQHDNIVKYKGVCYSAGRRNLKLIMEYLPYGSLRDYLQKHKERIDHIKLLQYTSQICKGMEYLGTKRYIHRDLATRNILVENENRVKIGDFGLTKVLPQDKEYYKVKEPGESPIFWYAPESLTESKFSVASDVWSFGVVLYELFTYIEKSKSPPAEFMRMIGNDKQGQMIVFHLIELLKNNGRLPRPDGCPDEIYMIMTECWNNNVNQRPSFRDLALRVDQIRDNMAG

Consider `Cc1cc(Nc2ccc3ncn([C@@H]4CCc5ccc(F)cc54)c3n2)[nH]n1.Cl.Cl` [Example 1, 3-[(1R)-6-fluoro-2,3-dihydro-1H-inden-1-yl]-N-(3-methyl-1H-pyrazol-5-yl)-3H-imidazo[4,5-b]pyridin-5-amine dihydrochloride], for which the figures for the IC50 in experiment [1] and in experiment [2] were 35 nM and 21 nM, respectively.
